Measurements reported in PMC10269926, “The LiaFSR-LiaX System Mediates Resistance of Enterococcus faecium to Peptide Antibiotics and to Aureocin A53- and Enterocin L50-Like Bacteriocins” (Microbiology Spectrum, 2023).
≈ marks a conversion by molar mass, not a printed value. Where two headings read alike, the source gives them in different places. Where no end group is shown, it is not given here.

Columns and labels:
[1] = system: E. faecium LMGT 2783 (WT); assay: microbe, parasite or virus in culture
Protocol: (§1) The sensitivity of the mutants to AurA53- and EntL50-like bacteriocins, nisin, RAM, GRA, carbenicillin, and chlortetracycline was determined using microtiter plates with serial 2-fold dilutions of the antimicrobials, as described previously ([41]). The lowest concentration of the agent reducing visible bacterial growth by at least 50% was taken as the MIC (MIC50) value. The sensitivity to other antibiotics was determined using agar plates with antibiotic strips as described previously ([12]). The antibiotic concentration at the point where the inhibition zone intersected the strip was taken as the MIC value. The antibiotic susceptibilities of E. faecium LMGT 2783, MUT_130 to MUT_132, MUT_136 to MUT_139, and MUT_140 and MUT_141 were tested in ISO-BHI medium (Oxoid) supplemented with 5 μg/mL Em when appropriate, while those of E. faecium MUT_142 to MUT_149 were tested in CM17 medium supplemented with 5 μg/mL Em. To study the effects of NaCl and sodium dodecyl sulfate (SDS) on bacterial growth, saturated overnight cultures of E. faecium were used for inoculation at a dilution of 1:100 in BHI medium with serial dilutions of these compounds at concentrations of 0.5 to 10% (wt/vol) and 3.0 × 10^−2 to 2.5 × 10^−3% (wt/vol), respectively. Bacterial cultures were incubated at 37°C without shaking for 24 h in a Bioscreen turbidometric automated analyzer (Bioscreen C, Growth Curves Ltd., Finland) in Honeycomb 100-well plates (Oy Growth Curves Ab Ltd.). […] The assays were made at least in triplicate.

[2] = system: E. faecium MUT_140 (liaFSR deletion) and MUT_141 (liaFSR plus liaX deletion); assay: Susceptibility of deletion strains as a group (microtiter MIC50 or antibiotic strips); type: cell-based, Enterococcus faecium; conditions: for Effect of the deletions on sensitivity (in words): both deletion strains MUT_140 and MUT_141 compared with WT; for Fold increase in sensitivity relative to WT: both deletion strains MUT_140 and MUT_141
Protocol: as §1

[3] = system: E. faecium MUT_146 (ΔliaFSR pGh:PptcB:liaSR); conditions: antibiotic strips on agar, CM17 + 5 μg/mL Em, mean of three biological replicates
Protocol: as §1

[4] = system: E. faecium MUT_150 (ΔliaFSR ΔliaX pGh:PptcB:liaSR); conditions: antibiotic strips on agar, CM17 + 5 μg/mL Em, mean of three biological replicates
Protocol: as §1

[5] = system: E. faecium MUT_145 (ΔliaFSR pGh:PptcB:liaR); conditions: antibiotic strips on agar, CM17 + 5 μg/mL Em, mean of three biological replicates
Protocol: as §1

[6] = system: E. faecium MUT_149 (ΔliaFSR ΔliaX pGh:PptcB:liaR); conditions: antibiotic strips on agar, CM17 + 5 μg/mL Em, mean of three biological replicates
Protocol: as §1

[7] = system: E. faecium MUT_148 (ΔliaFSR ΔliaX pGh:PptcB:liaS); conditions: antibiotic strips on agar, CM17 + 5 μg/mL Em, mean of three biological replicates
Protocol: as §1

[8] = system: E. faecium MUT_143 (ΔliaFSR pGhost9 empty vector); conditions: antibiotic strips on agar, CM17 + 5 μg/mL Em, mean of three biological replicates
Protocol: as §1

[9] = system: E. faecium MUT_144 (ΔliaFSR pGh:PptcB:liaS); conditions: antibiotic strips on agar, CM17 + 5 μg/mL Em, mean of three biological replicates
Protocol: as §1

[10] = system: E. faecium MUT_147 (ΔliaFSR ΔliaX pGhost9 empty vector); conditions: antibiotic strips on agar, CM17 + 5 μg/mL Em, mean of three biological replicates
Protocol: as §1

[11] = system: E. faecium MUT_146 (ΔliaFSR pGh:PptcB:liaSR); assay: MIC50, microtiter plates with serial 2-fold dilutions; type: cell-based, Enterococcus faecium; conditions: microtiter 2-fold dilutions, at least 50% growth reduction, CM17 + 5 μg/mL Em, mean of three biological replicates
Protocol: as §1

[12] = system: E. faecium MUT_150 (ΔliaFSR ΔliaX pGh:PptcB:liaSR); assay: as above; type: cell-based, Enterococcus faecium; conditions: microtiter 2-fold dilutions, at least 50% growth reduction, CM17 + 5 μg/mL Em, mean of three biological replicates
Protocol: as §1

[13] = system: E. faecium MUT_145 (ΔliaFSR pGh:PptcB:liaR); assay: as above; type: cell-based, Enterococcus faecium; conditions: microtiter 2-fold dilutions, at least 50% growth reduction, CM17 + 5 μg/mL Em, mean of three biological replicates
Protocol: as §1

[14] = system: E. faecium MUT_149 (ΔliaFSR ΔliaX pGh:PptcB:liaR); assay: as above; type: cell-based, Enterococcus faecium; conditions: microtiter 2-fold dilutions, at least 50% growth reduction, CM17 + 5 μg/mL Em, mean of three biological replicates
Protocol: as §1

[15] = system: E. faecium MUT_148 (ΔliaFSR ΔliaX pGh:PptcB:liaS); assay: as above; type: cell-based, Enterococcus faecium; conditions: microtiter 2-fold dilutions, at least 50% growth reduction, CM17 + 5 μg/mL Em, mean of three biological replicates
Protocol: as §1

[16] = system: E. faecium MUT_143 (ΔliaFSR pGhost9 empty vector); assay: as above; type: cell-based, Enterococcus faecium; conditions: microtiter 2-fold dilutions, at least 50% growth reduction, CM17 + 5 μg/mL Em, mean of three biological replicates
Protocol: as §1

[17] = system: E. faecium LMGT 2783 (WT); assay: as above; type: cell-based, Enterococcus faecium; conditions: lowest concentration reducing visible growth by at least 50%, ISO-BHI medium, mean of three biological replicates
Protocol: as §1

[18] = system: E. faecium MUT_144 (ΔliaFSR pGh:PptcB:liaS); assay: as above; type: cell-based, Enterococcus faecium; conditions: microtiter 2-fold dilutions, at least 50% growth reduction, CM17 + 5 μg/mL Em, mean of three biological replicates
Protocol: as §1

[19] = system: E. faecium MUT_147 (ΔliaFSR ΔliaX pGhost9 empty vector); assay: as above; type: cell-based, Enterococcus faecium; conditions: microtiter 2-fold dilutions, at least 50% growth reduction, CM17 + 5 μg/mL Em, mean of three biological replicates
Protocol: as §1

[20] = system: E. faecium MUT_132; assay: Effect of SDS on bacterial growth (Bioscreen); type: cell-based, Enterococcus faecium
Protocol: (§2) The sensitivity of the mutants to AurA53- and EntL50-like bacteriocins, nisin, RAM, GRA, carbenicillin, and chlortetracycline was determined using microtiter plates with serial 2-fold dilutions of the antimicrobials, as described previously ([41]). The lowest concentration of the agent reducing visible bacterial growth by at least 50% was taken as the MIC (MIC50) value. The sensitivity to other antibiotics was determined using agar plates with antibiotic strips as described previously ([12]). The antibiotic concentration at the point where the inhibition zone intersected the strip was taken as the MIC value. The antibiotic susceptibilities of E. faecium LMGT 2783, MUT_130 to MUT_132, MUT_136 to MUT_139, and MUT_140 and MUT_141 were tested in ISO-BHI medium (Oxoid) supplemented with 5 μg/mL Em when appropriate, while those of E. faecium MUT_142 to MUT_149 were tested in CM17 medium supplemented with 5 μg/mL Em. To study the effects of NaCl and sodium dodecyl sulfate (SDS) on bacterial growth, saturated overnight cultures of E. faecium were used for inoculation at a dilution of 1:100 in BHI medium with serial dilutions of these compounds at concentrations of 0.5 to 10% (wt/vol) and 3.0 × 10^−2 to 2.5 × 10^−3% (wt/vol), respectively. […]

[21] = system: E. faecium LMGT 2783 and its spontaneous mutants; assay: Effect of NaCl and SDS on bacterial growth (Bioscreen); type: cell-based, Enterococcus faecium; conditions: WT LMGT 2783 and all mutants, BHI, 37°C, 24 h, inoculum 1:100, lowest concentration (wt/vol) with at least 50% growth inhibition, at least triplicate
Protocol: as §2

[22] = system: spontaneous E. faecium BHT-B-resistant mutants
Protocol: Spontaneous resistant mutants were obtained by growing E. faecium LMGT 2783 in the presence of the bacteriocin as described previously ([41]). […] The stability of changes in BHT-B sensitivity was determined by continuously subculturing mutants in BHI broth without bacteriocin. Subcultures were formed at 24-h intervals, and sensitivity to BHT-B was validated after 1, 5, and 10 passages with simultaneous control of culture purity.
as §1

[23] = LMGT 2783, WT, agar plates with antibiotic strips, point where inhibition zone intersects strip, ISO-BHI medium, mean of three biological replicates
[24] = four mutants MUT_132, MUT_136, MUT_137, MUT_138, span over the mutants

Row | Compound | Effect of the deletions on sensitivity (in words) [2] | MIC50 [11] | MIC50 [12] | MIC50 [13] | MIC50 [14] | MIC50 [15] | MIC50 [16] | MIC50 [17] | MIC50 [18] | MIC50 [19] | other results
1 | NC[C@H]1O[C@H](O[C@H]2[C@H](O)[C@@H](O[C@H]3O[C@H](CO)[C@@H](O)[C@H](N)[C@H]3O)[C@H](N)C[C@@H]2N)[C@H](O)[C@@H](O)[C@@H]1O [KAN, kanamycin] | unaffected | – | – | – | – | – | – | – | – | – | MIC [1, 23]: 32 µg/mL (≈ 66 µM); MIC [3]: 64 µg/mL; MIC [4]: 128 µg/mL; MIC [5]: 64 µg/mL; MIC [6]: 128 µg/mL; MIC [7]: 32 µg/mL; MIC [8]: 32 µg/mL; MIC [9]: 32 µg/mL; MIC [10]: 32 µg/mL
2 | gramicidin | unaffected | 0.047 µg/mL | 0.047 µg/mL | 0.047 µg/mL | 0.047 µg/mL | 0.006 µg/mL | 0.006 µg/mL | 0.006 µg/mL | 0.006 µg/mL | 0.006 µg/mL | –
3 | weissellicin M [WelM] | unaffected | 25 µg/mL | 50 µg/mL | 25 µg/mL | 50 µg/mL | 6.3 µg/mL | 6.3 µg/mL | 6.3 µg/mL | 6.3 µg/mL | 6.3 µg/mL | –
4 | ramoplanin | unaffected | 0.3 µg/mL | 0.6 µg/mL | 0.3 µg/mL | 0.6 µg/mL | 0.3 µg/mL | 0.3 µg/mL | 0.4 µg/mL | 0.3 µg/mL | 0.3 µg/mL | –
5 | CCCCCCCCCCCCOS(=O)(=O)[O-].[Na+] [SDS, sodium dodecyl sulfate] | – | – | – | – | – | – | – | – | – | – | MIC50 ([20]; MUT_132, BHI, 37°C, 24 h, Bioscreen C, lowest concentration (wt/vol) with at least 50% growth inhibition, at least triplicate): 0.005%; Fold increase in susceptibility ([20]; MUT_132 compared with the other strains): 2 fold; MIC50 [21]: 0.01%
6 | CCCCCCCCCC(=O)N[C@@H](Cc1c[nH]c2ccccc12)C(=O)N[C@H](CC(N)=O)C(=O)N[C@@H](CC(=O)O)C(=O)N[C@@H]1C(=O)NCC(=O)N[C@@H](CCCN)C(=O)N[C@@H](CC(=O)O)C(=O)N[C@H](C)C(=O)N[C@@H](CC(=O)O)C(=O)NCC(=O)N[C@H](CO)C(=O)N[C@@H]([C@H](C)CC(=O)O)C(=O)N[C@@H](CC(=O)c2ccccc2N)C(=O)O[C@@H]1C [DAP, daptomycin] | – | – | – | – | – | – | – | – | – | – | MIC [1, 23]: 3 µg/mL (≈ 1.85 µM); Fold increase in sensitivity relative to WT [2]: 48 fold; MIC [3]: 3 µg/mL; MIC [4]: 8 µg/mL; MIC [5]: 6 µg/mL; MIC [6]: 12 µg/mL; MIC [7]: 0.38 µg/mL; MIC [8]: 0.38 µg/mL; MIC [9]: 0.38 µg/mL; MIC [10]: 0.38 µg/mL; DAP MIC of the BHT-B-resistant mutants ([22]; BHT-B-resistant mutants obtained, antibiotic strips): ≤ 8 µg/mL
7 | nisin (ITSISLCTPGCKTGALMGCNMKTATCHCSIHVSK; not fully specified (some residues, bridges); cysteine pairing not given here; also: lantibiotic; UniProt P13068 24-57, looked up) | – | 16 µg/mL | 16 µg/mL | 16 µg/mL | 16 µg/mL | 8 µg/mL | 8 µg/mL | 125 µg/mL | 8 µg/mL | 8 µg/mL | Fold increase in sensitivity relative to WT [2]: 16 fold; Fold-lower sensitivity than that of WT E. faecium [22, 24]: no more than 4 fold
8 | enterocin L50 [EntL50] | – | 1.6 µg/mL | 3.2 µg/mL | 1.6 µg/mL | 3.2 µg/mL | 0.4 µg/mL | 0.4 µg/mL | 1.6 µg/mL | 0.4 µg/mL | 0.4 µg/mL | –
9 | CNC(C)C1CCC(N)C(OC2C(N)CC(N)C(OC3OCC(C)(O)C(NC)C3O)C2O)O1 (stereo not shown) [GEN, gentamicin] | unaffected | – | – | – | – | – | – | – | – | – | MIC ([1]; Enterococcus faecium): 4 µg/mL (≈ 8.38 µM); Fold-lower sensitivity than that of WT E. faecium ([22]; {}): 2-8 fold
10 | salivaricin C [SalC] | – | 50 µg/mL | 50 µg/mL | 50 µg/mL | 50 µg/mL | 12.5 µg/mL | 12.5 µg/mL | 25 µg/mL | 12.5 µg/mL | 12.5 µg/mL | Fold-lower sensitivity than that of WT E. faecium [22, 24]: no more than 4 fold
11 | enterocin 7 [Ent7] | – | 1.6 µg/mL | 1.6 µg/mL | 1.6 µg/mL | 1.6 µg/mL | 0.4 µg/mL | 0.4 µg/mL | 1.6 µg/mL | 0.4 µg/mL | 0.4 µg/mL | –
12 | [Cl-].[Na+] [NaCl] | – | – | – | – | – | – | – | – | – | – | MIC50 [21]: 6%
13 | bacitracin | – | – | – | – | – | – | – | – | – | – | MIC [1, 23]: 32 µg/mL; MIC [3]: 16 µg/mL; MIC [4]: 24 µg/mL; MIC [5]: 24 µg/mL; MIC [6]: 16 µg/mL; MIC [7]: 16 µg/mL; MIC [8]: 24 µg/mL; MIC [9]: 24 µg/mL; MIC [10]: 16 µg/mL
